Source: US12454511B2, “6-methoxy-3,4-dihydro-1H-isoquinolin compounds” (Eli Lilly and Company, priority 2020, dated 2025)
Structures can show the parent of a compound that is named as a salt.

Columns and labels:
human GIPR = biological target: T1, human GIPR (Homo sapiens, UniProt P48546); test: Human GIP Receptor Potentiator Assay (cAMP formation, HTRF, in presence of EC20 dose of GIP(1-42)); assay type: cell-based; settings: HEK293 GIPR cell line intracellular cAMP response, with 25 pM GIP(1-42); for Emax: percent top of maximal response; for EC50: relative EC50, read-out: EC50 (nM) and SEM (n)
T1 construct: expressed in transfected cells; host or cells: HEK293 clonal cell line
T1 sequence (P48546 22-466): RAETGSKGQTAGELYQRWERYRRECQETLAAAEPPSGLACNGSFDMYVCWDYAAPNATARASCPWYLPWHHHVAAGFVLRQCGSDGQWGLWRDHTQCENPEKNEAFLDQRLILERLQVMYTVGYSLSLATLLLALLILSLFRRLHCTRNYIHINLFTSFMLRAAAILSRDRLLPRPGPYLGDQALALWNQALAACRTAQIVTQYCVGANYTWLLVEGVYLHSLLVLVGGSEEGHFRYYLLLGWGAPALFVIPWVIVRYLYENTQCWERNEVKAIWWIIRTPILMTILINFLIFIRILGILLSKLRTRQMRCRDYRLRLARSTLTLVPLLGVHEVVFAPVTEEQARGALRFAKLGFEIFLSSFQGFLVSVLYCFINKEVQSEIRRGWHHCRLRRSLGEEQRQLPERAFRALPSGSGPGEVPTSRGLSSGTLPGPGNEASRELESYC
Procedure: Human GIP Receptor Potentiator Assay
GIP Receptor (GIPR) functional activity is determined using cAMP formation in an HEK293 clonal cell line expressing human GIPR (NCBI accession number NP_000155). […] The hGIPR receptor expressing cells are treated with 25 pM of GIP(1-42) (Labcyte Echo direct dilution) and a dose response of test compound (10 point concentration-response curve in DMSO, 3-fold Labcyte Echo direct dilution, 384 well plate Corning Cat #3570) in DMEM (Gibco Cat #31053) supplemented with 1× GlutaMAX™ (Gibco Cat #35050), 0.1% bovine casein (Sigma C4765-10ML), 250 μM IBMX (3-Isobutyl-1-methylxanthine, Acros Cat #228420010) and 20 mM HEPES (Gibco Cat #15630) in a 20 μL assay volume (final DMSO concentration is 1.0%). After a 30 min incubation at 37° C., the resulting increase in intracellular cAMP is quantitatively determined using the CisBio cAMP Dynamic 2 HTRF Assay Kit (62AM4PEJ). Briefly, cAMP levels within the cell are detected by adding the cAMP-d2 conjugate in cell lysis buffer (10 μL) followed by the antibody anti-cAMP-Eu^3+-Cryptate, also in cell lysis buffer (10 μL). The resulting competitive assay is incubated for at least 60 min at room temperature, then detected using a PerkinElmer Envision® instrument with excitation at 320 nm and emission at 665 nm and 620 nm. Envision units (emission at 665 nm/620 nm*10,000) are inversely proportional to the amount of cAMP present and are converted to nM cAMP per well using a cAMP standard curve. The amount of cAMP generated (nM) in each well is converted to a percent of the maximal response observed. A relative EC50 value and percent top (Emax) are derived by non-linear regression analysis using the percent maximal response vs. the concentration of compound added, fitted to a four-parameter logistic equation. The EC50 and Emax data when the compounds of Examples 1 and 3 are tested in the cAMP assay described above are shown in Table 1.

human GLP-1R = biological target: T2, human GLP-1R (Homo sapiens, UniProt P43220); test: Human GLP-1 Receptor Potentiator Assay (cAMP formation, HTRF, in presence of EC20 dose of oxyntomodulin); assay type: cell-based; settings: HEK293 GLP-1R cell line intracellular cAMP response, with 5 nM oxyntomodulin
T2 construct: expressed in transfected cells; host or cells: HEK293 clonal cell line
T2 sequence (P43220 24-463): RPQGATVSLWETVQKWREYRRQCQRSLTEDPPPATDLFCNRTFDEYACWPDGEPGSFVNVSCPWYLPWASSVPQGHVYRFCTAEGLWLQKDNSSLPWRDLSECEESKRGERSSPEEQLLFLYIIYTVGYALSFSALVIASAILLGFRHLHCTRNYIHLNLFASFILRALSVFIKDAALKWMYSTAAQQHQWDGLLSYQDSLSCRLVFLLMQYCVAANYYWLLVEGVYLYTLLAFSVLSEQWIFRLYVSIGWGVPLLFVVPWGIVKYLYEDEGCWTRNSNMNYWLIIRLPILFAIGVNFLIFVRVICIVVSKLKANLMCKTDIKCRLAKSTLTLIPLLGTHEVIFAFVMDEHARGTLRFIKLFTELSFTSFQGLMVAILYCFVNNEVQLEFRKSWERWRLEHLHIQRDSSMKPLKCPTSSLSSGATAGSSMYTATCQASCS
Procedure: Human GLP-1 Receptor Potentiator Assay
GLP-1 Receptor (GLP-1R) functional activity is determined using cAMP formation in an HEK293 clonal cell line expressing human GLP-1R (NCBI accession number NP_002053). […] After 60 min incubation at room temperature, the resulting increase in intracellular cAMP is quantitatively determined using a custom CisBio cAMP Hybrid HTRF Assay Kit (60MISZZZ). Briefly, cAMP levels within the cell are detected by adding the Dynamic 2 cAMP-d2 conjugate in cell lysis buffer (10 μL) followed by the HiRange antibody anti-cAMP-Eu^3+-Cryptate, also in cell lysis buffer ([…]). The resulting competitive assay is incubated for at least 60 min at RT, then detected using a PerkinElmer Envision® instrument with excitation at 320 nm and emission at 665 nm and 620 nm. […]

Emax (human GIPR)	EC50 (human GIPR)	Emax (human GLP-1R; percent top of maximal response)	EC50 (human GLP-1R; relative EC50, read-out: EC50 (nM) and SEM (n))	SMILES
101 ± 7%	11.9 nM	–	–	COc1ccc2c(c1-c1cc(F)c(O)c(NCC(C)C)c1)CCN(C(C)c1ccc(C(C)C)cc1)[C@@H]2C (single isomer, unassigned) [Example 1, dihydrochloride]
–	–	181 ± 35%	15.7 nM	COCC1Cc2c(ccc(OC)c2-c2ccc(O)c(C)c2)CN1Cc1ccc(C(C)C)cc1O (single isomer, unassigned) [Example 2, 4-[2-[(2-Hydroxy-4-isopropyl-phenyl)methyl]-6-methoxy-3-(methoxymethyl)-3,4-dihydro-1H-isoquinolin-5-yl]-2-methyl-phenol; hydrochloride]
91 ± 8%	37.5 nM	–	–	COc1ccc2c(c1-c1cc(C)c(O)c(F)c1)CCN(C(C)c1ccc(C(C)C)cc1)[C@@H]2C (single isomer, unassigned) [Example 3, hydrochloride]
